Data published in article PMC5964349, “A Single-Domain Response Regulator Functions as an Integrating Hub To Coordinate General Stress Response and Development in Alphaproteobacteria” (mBio, 2018).

What was measured:
Assay in all cases: autophosphorylation, SDS-PAGE autoradiography
Type in all cases: biochemical
CC3058 = molecular target: T1, CC3058 (Caulobacter vibrioides, UniProt Q9A3Z2); settings: 500 µM ATP with [γ-32P]ATP; 5 mM MgCl2, pH 8.0, room temperature, 30 min; labelled compound
T1 construct: gene CC_3058; recombinant from E. coli BL21, Ni-NTA purified
T1 sequence (Q9A3Z2 1-465): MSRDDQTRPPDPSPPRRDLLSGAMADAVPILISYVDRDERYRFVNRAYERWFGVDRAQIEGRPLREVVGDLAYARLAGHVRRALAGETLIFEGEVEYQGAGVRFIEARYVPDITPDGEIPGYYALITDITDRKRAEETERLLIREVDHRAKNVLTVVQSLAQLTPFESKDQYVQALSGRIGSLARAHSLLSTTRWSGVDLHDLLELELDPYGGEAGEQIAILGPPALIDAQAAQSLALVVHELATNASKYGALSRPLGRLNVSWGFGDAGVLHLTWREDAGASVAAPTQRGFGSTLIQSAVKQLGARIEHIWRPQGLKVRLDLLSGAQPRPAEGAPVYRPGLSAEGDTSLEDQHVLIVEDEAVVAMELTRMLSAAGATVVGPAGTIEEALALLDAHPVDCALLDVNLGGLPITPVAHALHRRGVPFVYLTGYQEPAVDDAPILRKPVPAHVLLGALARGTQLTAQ

[1] = molecular target: T2, CC2874 lacking its C-terminal receiver domain (ΔREC) (Caulobacter vibrioides, UniProt Q9A4G0); settings: 500 µM ATP with [γ-32P]ATP; 5 mM MgCl2, pH 8.0, room temperature, 15 min; labelled compound
T2 construct: gene CC_2874; recombinant from E. coli BL21, Ni-NTA purified

CC1683 = molecular target: T3, CC1683 (Caulobacter vibrioides, UniProt Q9A7N7); settings: 500 µM ATP with [γ-32P]ATP; 5 mM MgCl2, pH 8.0, room temperature, 30 min; labelled compound
T3 construct: gene CC_1683; recombinant from E. coli BL21, Ni-NTA purified
T3 sequence (Q9A7N7 1-555): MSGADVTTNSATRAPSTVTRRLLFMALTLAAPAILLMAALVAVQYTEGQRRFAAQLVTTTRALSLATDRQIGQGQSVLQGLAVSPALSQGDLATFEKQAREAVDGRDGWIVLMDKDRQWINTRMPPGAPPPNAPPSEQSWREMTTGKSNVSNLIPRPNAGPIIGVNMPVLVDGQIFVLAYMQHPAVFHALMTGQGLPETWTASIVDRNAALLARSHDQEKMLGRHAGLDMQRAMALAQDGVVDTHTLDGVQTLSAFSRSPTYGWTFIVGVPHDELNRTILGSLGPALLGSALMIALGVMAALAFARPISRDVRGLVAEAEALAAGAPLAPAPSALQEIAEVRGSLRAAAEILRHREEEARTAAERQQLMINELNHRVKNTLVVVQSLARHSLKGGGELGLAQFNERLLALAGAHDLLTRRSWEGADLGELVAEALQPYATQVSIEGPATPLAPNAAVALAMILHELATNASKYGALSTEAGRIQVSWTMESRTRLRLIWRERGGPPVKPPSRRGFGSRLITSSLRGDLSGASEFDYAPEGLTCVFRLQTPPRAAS

CC3170 = molecular target: T4, CC3170 (Caulobacter vibrioides, UniProt Q9A3N2); settings: 500 µM ATP with [γ-32P]ATP; 5 mM MgCl2, pH 8.0, room temperature, 30 min; labelled compound
T4 construct: gene CC_3170; recombinant from E. coli BL21, Ni-NTA purified
T4 sequence (Q9A3N2 1-473): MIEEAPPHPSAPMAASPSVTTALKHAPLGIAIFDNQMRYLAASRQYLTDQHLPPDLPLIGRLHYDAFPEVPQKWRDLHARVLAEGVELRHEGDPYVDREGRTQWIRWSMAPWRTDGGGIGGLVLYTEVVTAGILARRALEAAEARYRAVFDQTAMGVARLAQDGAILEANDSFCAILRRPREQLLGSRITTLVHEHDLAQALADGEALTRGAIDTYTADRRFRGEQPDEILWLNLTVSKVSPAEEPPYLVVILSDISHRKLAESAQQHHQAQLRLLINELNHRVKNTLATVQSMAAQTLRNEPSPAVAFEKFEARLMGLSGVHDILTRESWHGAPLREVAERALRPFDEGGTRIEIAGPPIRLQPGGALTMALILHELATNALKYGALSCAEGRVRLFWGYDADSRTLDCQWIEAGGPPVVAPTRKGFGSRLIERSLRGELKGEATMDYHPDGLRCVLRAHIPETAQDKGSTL

CC2874 = molecular target: T5, CC2874 (Caulobacter vibrioides, UniProt Q9A4G0); settings: 500 µM ATP with [γ-32P]ATP; 5 mM MgCl2, pH 8.0, room temperature, 15 min; labelled compound
T5 construct: gene CC_2874; recombinant from E. coli BL21, MBP-tagged (partly cleaved), Ni-NTA purified
T5 sequence (Q9A4G0 1-794): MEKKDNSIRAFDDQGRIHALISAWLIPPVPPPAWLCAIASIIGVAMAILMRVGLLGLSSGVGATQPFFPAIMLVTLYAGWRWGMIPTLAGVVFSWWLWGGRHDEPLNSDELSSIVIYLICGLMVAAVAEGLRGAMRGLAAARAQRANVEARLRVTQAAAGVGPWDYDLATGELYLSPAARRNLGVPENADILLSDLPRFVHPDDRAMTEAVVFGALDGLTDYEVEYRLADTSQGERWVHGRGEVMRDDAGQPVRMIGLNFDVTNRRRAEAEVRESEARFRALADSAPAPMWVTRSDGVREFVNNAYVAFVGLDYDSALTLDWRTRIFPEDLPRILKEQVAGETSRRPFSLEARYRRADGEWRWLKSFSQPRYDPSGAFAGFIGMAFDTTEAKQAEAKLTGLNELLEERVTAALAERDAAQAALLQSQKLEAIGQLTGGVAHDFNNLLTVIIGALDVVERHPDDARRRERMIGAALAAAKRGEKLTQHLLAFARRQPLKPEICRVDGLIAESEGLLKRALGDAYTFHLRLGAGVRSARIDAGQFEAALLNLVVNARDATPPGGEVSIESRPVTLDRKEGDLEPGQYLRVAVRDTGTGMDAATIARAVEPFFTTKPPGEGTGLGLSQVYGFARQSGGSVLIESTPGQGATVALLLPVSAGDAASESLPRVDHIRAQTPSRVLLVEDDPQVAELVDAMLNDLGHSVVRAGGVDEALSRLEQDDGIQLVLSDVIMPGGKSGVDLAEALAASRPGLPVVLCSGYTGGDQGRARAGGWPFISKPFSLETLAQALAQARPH

CC2554 = molecular target: T6, CC2554 (Caulobacter vibrioides, UniProt Q9A599); settings: 500 µM ATP with [γ-32P]ATP; 5 mM MgCl2, pH 8.0, room temperature, 15 min; labelled compound
T6 construct: gene CC_2554; recombinant from E. coli BL21, Ni-NTA purified
T6 sequence (Q9A599 1-338): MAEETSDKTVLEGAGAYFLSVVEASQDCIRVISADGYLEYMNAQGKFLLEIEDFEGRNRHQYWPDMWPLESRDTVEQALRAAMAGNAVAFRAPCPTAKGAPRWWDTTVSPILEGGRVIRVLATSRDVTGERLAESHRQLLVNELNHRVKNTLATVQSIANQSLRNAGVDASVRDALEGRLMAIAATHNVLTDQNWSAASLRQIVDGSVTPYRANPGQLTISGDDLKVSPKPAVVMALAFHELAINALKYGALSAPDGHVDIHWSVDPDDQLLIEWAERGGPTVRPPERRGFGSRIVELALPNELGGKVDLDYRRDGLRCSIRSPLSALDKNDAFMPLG

CC0836 = molecular target: T7, CC0836 (Caulobacter vibrioides, UniProt Q9A9X5); settings: 500 µM ATP with [γ-32P]ATP; 5 mM MgCl2, pH 8.0, room temperature, 30 min; labelled compound
T7 construct: gene CC_0836; recombinant from E. coli BL21, Ni-NTA purified
T7 sequence (Q9A9X5 1-754): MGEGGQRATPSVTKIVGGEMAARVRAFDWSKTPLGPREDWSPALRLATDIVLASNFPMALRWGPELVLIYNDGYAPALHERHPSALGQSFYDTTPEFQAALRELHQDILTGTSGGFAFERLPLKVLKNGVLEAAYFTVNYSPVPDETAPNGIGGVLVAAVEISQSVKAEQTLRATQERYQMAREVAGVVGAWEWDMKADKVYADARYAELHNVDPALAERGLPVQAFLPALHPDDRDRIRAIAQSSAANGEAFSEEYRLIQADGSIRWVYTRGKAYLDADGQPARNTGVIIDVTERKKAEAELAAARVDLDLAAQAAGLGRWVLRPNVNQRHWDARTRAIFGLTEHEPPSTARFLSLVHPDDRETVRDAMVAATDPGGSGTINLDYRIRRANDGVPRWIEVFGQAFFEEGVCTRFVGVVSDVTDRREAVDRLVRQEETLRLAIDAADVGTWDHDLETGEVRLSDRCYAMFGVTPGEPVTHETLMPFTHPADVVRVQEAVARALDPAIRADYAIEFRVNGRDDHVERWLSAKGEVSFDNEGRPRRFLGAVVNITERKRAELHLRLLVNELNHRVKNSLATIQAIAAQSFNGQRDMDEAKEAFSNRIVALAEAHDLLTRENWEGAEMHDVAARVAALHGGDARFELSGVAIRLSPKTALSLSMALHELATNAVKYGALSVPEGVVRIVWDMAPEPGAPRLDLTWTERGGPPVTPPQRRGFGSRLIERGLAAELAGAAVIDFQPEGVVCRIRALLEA

In the case of `Nc1ncnc2c1ncn2[C@@H]1O[C@H](COP(=O)(O)OP(=O)(O)OP(=O)(O)O)[C@@H](O)[C@H]1O` [ATP], the “autophosphorylation, SDS-PAGE autoradiography” value (CC3058) is reported as “Purified kinases CC0836, CC1683, CC3058, and CC3170 were mixed with ATP”, the “autophosphorylation, SDS-PAGE autoradiography” value [1] is reported as “this part of the kinase is not required for autophosphorylation and phosphotransfer to MrrA” and the “autophosphorylation, SDS-PAGE autoradiography” value (CC1683) is reported as “Purified kinases CC0836, CC1683, CC3058, and CC3170 were mixed with ATP”. The “autophosphorylation, SDS-PAGE autoradiography” value (CC3170) was “Purified kinases CC0836, CC1683, CC3058, and CC3170 were mixed with ATP”, the “autophosphorylation, SDS-PAGE autoradiography” value (CC2874) was “Autophosphorylation of histidine kinases CC2554 (left) and CC2874 (right) and phosphotransfer to MrrA” and the “autophosphorylation, SDS-PAGE autoradiography” value (CC2554) was “Autophosphorylation of histidine kinases CC2554 (left) and CC2874 (right) and phosphotransfer to MrrA”. For the same compound, the “autophosphorylation, SDS-PAGE autoradiography” value (CC0836) was “Purified kinases CC0836, CC1683, CC3058, and CC3170 were mixed with ATP”.
